The values below come from PMC7732128, “Regulation of gene transcription by thyroid hormone receptor β agonists in clinical development for the treatment of non-alcoholic steatohepatitis (NASH)” (PLoS ONE, 2020).

Entries after “also recorded” stand apart in the source; their conditions may differ. Where two headings read alike, the source gives them in different places.

One data set deals with healthy volunteers. As to conditions: two weeks, ≥ 80 mg; cited from earlier work.
Data set [1] has as its system THR (liver Cpt1a, Dio1, Me1, Thrsp RNA). Kind of data set: High-fat diet fed rat study: liver gene expression. Particulars: HFD rats. In kind it is in vivo. On the procedure:
(§1) Eighty-four male Sprague Dawley rats, approximately 8 to 11 weeks of age, were fed with either a normal diet, ND (D12450K: 10 kcal% fat, no sucrose), or high-fat diet, HFD (D12109C: 40 kcal% fat, 1.25 gm% cholesterol, 0.5 gm% sodium cholate, 12.5 gm% sucrose). After 12 days of diet consumption, baseline serum total cholesterol and low-density lipoprotein cholesterol (LDL-C) levels were measured with the cobas 6000 c501 Chemistry Analyzer (Roche) to confirm hypercholesterolemia in the HFD fed rats. Animals were then randomized into treatment groups.
(§2) Serum total cholesterol and LDL-C levels were determined as described above. […] Caudate lobes of the liver were used for analysis of hepatic total cholesterol (Abcam, ab65390) and triglyceride levels (Abcam, ab65336) via enzyme-linked immunosorbent assay. Right lateral lobes were stored in RNAlater (Invitrogen, AM7020) at -70°C until homogenization with the Scientz-48 TissueLyser LT for downstream gene expression analysis. RNA extraction was performed at WuXi AppTec (Hong Kong) Limited (China) with the RNeasy Mini Kit (Qiagen, 74106) and RNA concentration and quality was determined using the Nanodrop 2000 (Thermo Scientific); additional quality control was assessed with agarose gel electrophoresis. One μg total RNA from each sample was then reverse-transcribed using the High Capacity cDNA Reverse Transcription kit (Applied Biosystems, 4368814) and the resulting cDNA was diluted 1:5 with nuclease-free, distilled water. Gene expression was measured using TaqMan Fast Advanced Master Mix and the following TaqMan Gene Expression assays: Actb (Rn00667869_m1), Cpt1a (Rn00580702_m1), Dio1 (Rn00572183_m1), Me1 (Rn00561502_m1), Rplp1 (Rn03467157_gH), and Thrsp (Rn01511034_m1). Actb and Rplp1 served as control housekeeping genes. Ten μL reactions were run on the qTOWER³ 84. Relative quantification (RQ) of gene expression was calculated via the 2^−ΔΔCt method and statistical analysis was performed in GraphPad Prism 8.0 and Microsoft Excel.

The next data set relates to HFD fed rats. The data set is described as follows: High-fat diet fed rat study: serum and hepatic lipid levels. In kind it is in vivo. On the procedure: Animals were purchased from Vital River Laboratory Animal Technology Co. Ltd. and experiments were conducted at Covance Pharmaceutical R&D (Shanghai) Co., Ltd. (China). Animals were group-housed in polycarbonate cages with corncob bedding under controlled temperature (21–25°C), humidity (40–70%), and a 12-hr light/dark cycle. All procedures performed were in compliance with local animal welfare legislation, Covance global policies and procedures, and the Guide for the Care and Use of Laboratory Animals.
as §1
as §2, with “Twenty-four hrs after dosing, animals were euthanized by CO2 inhalation and serum and plasma were collected along with liver tissue. Serum” for “Serum”

Data set [2] is described as follows: High-fat diet fed rat study: plasma compound concentration (LC-MS/MS). In kind it is in vivo. As to conditions: male, Sprague Dawley, po, HFD rats, read-out: Plasma AUC0-24hrs. On the procedure: as §1
as §2, with “Twenty-four hrs after dosing, animals were euthanized by CO2 inhalation and serum and plasma were collected along with liver tissue. Serum” for “Serum”, “Ten μL reactions were run on the qTOWER³ 84.” left out

For a further data set, the system named is THRβ (α:β). Details: method as in PMID 32768645. Particulars: coactivator recruitment assay; cited from earlier work.
The mark [3] stands for this setting: 4 hrs after 5.0 or 1.5 mg/kg, vs vehicle.
Setting [4] is: 0.5 mg/kg P.O. single dose, 24 hrs.
[5] abbreviates: 5.0 and 1.5 mg/kg P.O. single dose, 24 hrs post-dose.

Regarding `CC(C)c1cc(Oc2c(Cl)cc(-n3nc(C#N)c(=O)[nH]c3=O)cc2Cl)n[nH]c1=O` [MGL-3196, 2-[3,5-dichloro-4-(5-isopropyl-6-oxo-1,6-dihydropyridazin-3-yloxy)phenyl]-3,5-dioxo-2,3,4,5-tetrahydro[1,2,4]triazine-6-carbonitrile], in the data set with healthy volunteers, the “reduction in LDL-C” value was 21.8–30.3% and the “reduction in total cholesterol” value is listed as 16.0–22.8%. In data set [1] (setting [3]), the “liver Cpt1a, Dio1 and Thrsp RNA levels” value was “activated the transcription of Cpt1a, Dio1, and Thrsp in a dose-dependent manner”; the “liver Me1 RNA level” value was “no significant increase”. Moreover, the “increases in liver Cpt1a and Thrsp RNA levels” value in data set [1] (24 hrs after 5.0 or 1.5 mg/kg) is on record as “dampened”. Further, the “liver Dio1 and Me1 transcription” value in data set [1] (24 hrs after 5.0 or 1.5 mg/kg, vs vehicle) is “significantly increased”. For the same molecule, in data set [1] (between 1.5 and 5 mg/kg), the “increase in liver Dio1 expression between doses” value came to 1.3 fold. In addition, in the data set on HFD fed rats (setting [4]), the “effect on serum LDL-C” value is reported as “did not significantly lower”, the “effect on serum total cholesterol” value is reported as “no significant effect; also recorded: did not significantly lower” and the “effect on serum triglyceride levels” value is listed as “did not have a significant effect; also recorded: did not significantly lower”. The “decrease in serum triglyceride levels (pre-dose vs 24 hrs post-dose)” value in the data set with HFD fed rats (1.5 mg/kg P.O. single dose) is recorded as 37.5%. The “decrease in serum total cholesterol (pre-dose vs 24 hrs post-dose)” value with HFD fed rats (5 mg/kg P.O. single dose) came out at 33.6%. The “decrease in serum triglyceride levels (pre-dose vs 24 hrs post-dose)” value in the data set with HFD fed rats (5.0 mg/kg P.O. single dose) is on record as 32.1%. Further, in the data set on HFD fed rats (setting [5]), the “effect on hepatic cholesterol levels” value was “did not significantly affect” and the “effect on hepatic triglyceride levels” value is on record as “did not significantly affect”. Besides, the AUC(0-t) in data set [2] (0.5 mg/kg P.O. single dose) is 2600 ng·h/mL. In addition, in data set [2] (1.5 mg/kg P.O. single dose), the AUC(0-t) came out at 8200 ng·h/mL. Further, the AUC(0-t) in data set [2] (5.0 mg/kg P.O. single dose) was found to be 21700 ng·h/mL.
Consider `Cc1cc(OCP(=O)(O)O)cc(C)c1Cc1ccc(O)c(C(C)C)c1` [VK2809A], for which the “selectivity for THRβ (α:β)” value in the data set on THRβ (α:β) was 2.1.
